This is an account of results in patent US7300794B2, “Accelerated culture system for intestinal epithelial cell monolayers” (Supernus Pharmaceuticals, Inc., priority 2003, dated 2007).

Data set [1] in a line: in vitro. The settings on record: human; for Papp A→B: Caco-2, pH 7.4. The procedure:
(§1) A method of using the medium also is part of the present invention. The following description is representative of how this would be done. Caco-2 cells (available from ATCC, Manassas, Va.) are resuspended in the HTB-10 medium and seeded on 3 μm polycarbonate 6-well Transwell® cell culture inserts (diameter 24.5 mm, Corning Costar) at a density of about 0.2×10^6 cells/cm^2. The seeding of the cells was performed on dry filters by placing 1.5 mL of the cell suspension on the apical side first, followed by addition of 2.5 mL of HTB-10 medium to the baso-lateral side.
(§2) To induce cell polarity, the volume of the medium on the apical side was decreased from 1.5 ml to 0.5 mL 48 hours post seeding, and the cells were fed primarily from the baso-lateral side. After the switch, the medium was changed every 24 hr for a total incubation period of 4 days.
(§3) The differentiation status and the monolayer integrity were monitored by measurements of transepithelial electrical resistance (TEER) and by determination of permeability of mannitol. […] The accelerated Caco-2 system was also evaluated through a validation process that was based on FDA guidelines for the Biopharmaceuticals Classification System (BCS). In that process, Caco-2 cell permeability coefficients were determined for 26 structurally diverse compounds that were then rank-ordered according to the fraction absorbed in humans. The transport studies were conducted as follows. The donor solution of the drug was placed on the apical side of a sample filter (1.5 mL) and the buffer solution (HBSS, pH 7.4) was placed on the baso-lateral side (2.5 mL). The plates were incubated at 37° C. on a shaker for 1-3 hr. Samples were collected at the designated time points and analyzed by either HPLC (uv)or radiometry (for radioactive compounds).

The test system of data set [2] is Caco-2 monolayer. Conditions: cited from earlier work.
For data set [3] the following is noted: fraction absorbed in humans, reported in the literature; cited from earlier work.
Data set [4] has as its system Caco-2 monolayer. As to the kind of experiment: in vitro. As to the method:
as §1, §2, §3

Where [5] appears, read: BCS validation set, compounds rank-ordered according to fraction absorbed in humans.

Where two headings read alike, the source gives them in different places. Marks after values point to notes of the source that are not given here.

For orientation: Papp A→B means how fast a substance crosses the layer from the apical side. Lower therefore signals slow passage. Take `Nc1nc2c(ncn2COCCO)c(=O)[nH]1` [Acyclovir]: the Papp A→B in data set [1] was found to be 3.8 ×10⁻⁶ cm/s.

`CC1(C)S[C@@H]2[C@H](NC(=O)[C@H](N)c3ccc(O)cc3)C(=O)N2[C@H]1C(=O)O` [Amoxicillin] came in with a Papp A→B in data set [1] of 0.02 ×10⁻⁶ cm/s. For the same molecule, the Permeability class entry in data set [2] (setting [5]) is reported as “Low”. Also, the “% fa in humans” value in data set [3] is 94** %.

With `Cc1cc(=O)n(-c2ccccc2)n1C` [Antipyrine], the “% fa in humans” value in data set [3] is given as 97-100%.

In the case of `CC(C)NCC(O)COc1ccc(CC(N)=O)cc1` (stereo not drawn) [Atenolol], in data set [3], the “% fa in humans” value is listed as 50-54%.

`NC(=O)N1c2ccccc2C=Cc2ccccc21` [Carbamazepine] yielded an apical-to-basolateral permeability (Papp A→B) in data set [1] of 84.6 ×10⁻⁶ cm/s. In addition, the Permeability class entry in data set [2] (setting [5]) is listed as “High”. For the same molecule, the “% fa in humans” value in data set [3] is 100%.

For the molecule `NC(N)=Nc1nc(CSCCC(N)=NS(N)(=O)=O)cs1` [Famotidine], the apical-to-basolateral permeability (Papp A→B) in data set [1] amounted to 1.36 ×10⁻⁶ cm/s. In addition, in data set [2] (setting [5]), the Permeability class result is “Low”. The “% fa in humans” value in data set [3] is given as 38%.

Molecule `CC(C)n1c(/C=C/C(O)CC(O)CC(=O)O)c(-c2ccc(F)cc2)c2ccccc21` (stereo not drawn) [Fluvastatin] came in with an apical-to-basolateral permeability (Papp A→B) in data set [1] of 10.8 ×10⁻⁶ cm/s. Also, the Permeability class result in data set [2] (setting [5]) was “High”.

Consider `NS(=O)(=O)c1cc(C(=O)O)c(NCc2ccco2)cc1Cl` [Furosemide], for which the “% fa in humans” value in data set [3] was 61%.

As to `NS(=O)(=O)c1cc2c(cc1Cl)NCNS2(=O)=O` [Hydrochlorthiazide], in data set [1], the apical-to-basolateral permeability (Papp A→B) was determined as 6.9 ×10⁻⁶ cm/s. Besides, the “% fa in humans” value in data set [3] is reported as 65-72%.

In data set [1], `CC(C(=O)O)c1cccc(C(=O)c2ccccc2)c1` (stereo not drawn) [Ketoprofen] had a Papp A→B of 48.6 ×10⁻⁶ cm/s. Also, in data set [2] (setting [5]), the Permeability class entry is recorded as “High”.

In the case of `C[C@](N)(Cc1ccc(O)c(O)c1)C(=O)O` [L-alpha-methyldopa], the “[PM × 10^−6] cm/sec” value in data set [4] (human, Caco-2, pH 7.4) is listed as 5.7 +/− 0.5 × 10^−6 cm/sec. For the same molecule, the Permeability class entry in data set [2] (Caco-2) is on record as “Low”. Further, the “% fa in humans” value in data set [3] is listed as 44** %.

In general, Papp refers to a coefficient for how fast a substance crosses the barrier. A higher Papp goes with ready permeation. Take `OC[C@@H](O)[C@@H](O)[C@H](O)[C@H](O)CO` [Mannitol]: the apparent permeability coefficient (Papp) in data set [1] (Caco-2) lay in the range of 0.7 to 6.3 ×10⁻⁶ cm/s. The same molecule returned a Papp A→B in data set [1] of 3 ×10⁻⁶ cm/s. In addition, in data set [2] (setting [5]), the Permeability class entry is “Low”. The “% fa in humans” value in data set [3] was 16-26%.

Regarding `CN(Cc1cnc2nc(N)nc(N)c2n1)c1ccc(C(=O)N[C@@H](CCC(=O)O)C(=O)O)cc1` [Methotraxate], in data set [4] (4-day Caco-2 in HTB-10, donor apical, HBSS pH 7.4, 37° C., 1-3 hr, donor concentration per Table 1), the “[PM × 10^−6] cm/sec” value was 4.2 +/− 0.7 × 10^−6 cm/sec. Moreover, in data set [2] (setting [5]), the Permeability class entry is on record as “Low”. The “% fa in humans” value in data set [3] was 20-100** %.

In data set [1], `COCCc1ccc(OCC(O)CNC(C)C)cc1` (stereo not drawn) [Metoprolol] returned an apparent permeability from apical to basolateral (Papp A→B) of 43.6 ×10⁻⁶ cm/s. The Permeability class entry in data set [2] (setting [5]) is recorded as “High”.

On to `COc1ccc2cc([C@H](C)C(=O)O)ccc2c1` [Naproxen], for which, in data set [3], the “% fa in humans” value is given as 94-100%.

In the case of `CC(C)NCC(O)COc1cccc2ccccc12` (stereo not drawn) [Propranolol], the apical-to-basolateral permeability (Papp A→B) in data set [1] worked out at 19.3 ×10⁻⁶ cm/s. For the same molecule, in data set [2] (setting [5]), the Permeability class entry is given as “High”.

`CNC(=C[N+](=O)[O-])NCCSCc1ccc(CN(C)C)o1` [Ranitidine] yielded a Papp A→B in data set [1] of 2.2 ×10⁻⁶ cm/s. Moreover, the Permeability class result in data set [2] (setting [5]) was “Medium”. Besides, the “% fa in humans” value in data set [3] is reported as 50-61%.

For the molecule `CC(C)(C)NCC(O)c1cc(O)cc(O)c1` (stereo not drawn) [Terbutalin], the apical-to-basolateral permeability (Papp A→B) in data set [1] worked out at 5.54 ×10⁻⁶ cm/s. Moreover, in data set [2] (setting [5]), the Permeability class result is listed as “Medium”. Moreover, the “% fa in humans” value in data set [3] is listed as 50-73%.

Turning to `C[C@]12CC[C@H]3[C@@H](CCC4=CC(=O)CC[C@@]43C)[C@@H]1CC[C@@H]2O` [Testosterone], in data set [3], the “% fa in humans” value was 100%.

On to `Cn1c(=O)c2[nH]cnc2n(C)c1=O` [Theophylline], for which the “% fa in humans” value in data set [3] is reported as 96%.

`CC(C)(C)NC[C@H](O)COc1nsnc1N1CCOCC1` [Timolol]: in data set [1], the Papp A→B was determined as 25.4 ×10⁻⁶ cm/s. For the same molecule, the Permeability class entry in data set [2] (setting [5]) is on record as “Medium”. In addition, the “% fa in humans” value in data set [3] is 72-75%.

On to PEG-400, for which the “[PM × 10^−6] cm/sec” value in data set [4] (Caco-2, pH 7.4) is 1.1 +/− 0.1 × 10^−6 cm/sec.

In the case of PEG-900, in data set [4] (Caco-2, pH 7.4), the “[PM × 10^−6] cm/sec” value is recorded as 0.7 +/− 0.1 × 10^−6 cm/sec.

In the case of PEG-4000, the “[PM × 10^−6] cm/sec” value in data set [4] (Caco-2, pH 7.4) is recorded as 0.6 +/− 0.1 × 10^−6 cm/sec.
